Test results: ChEMBL document CHEMBL3272056, “Synthesis of N-hydroxythiourea” (J Med Chem, 1976)
Activity calls are given as the source filed them. The rule behind the calls is not given here.

Test system: L1210
Test: Antitumor activity against mouse L1210 cells at 400 mg/kg, ip
Type: functional, organism-based
Parameters: dose 400 mg/kg

## NC(=S)NO
  Activity: inactive
